Where a name gives a salt, the structure may show the parent alone.
What was measured:
[1] = molecular target: ATM (Homo sapiens (Human), UniProt Q13315); assay: ATM in Cell Western Assay (pKAP1 in etoposide-treated MCF-7 cells); type: cell-based
Outline: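 After paraformaldehyde fixation and Triton X-100 permeabilization, immunostained plates were read by infrared scanning (ODYSSEY CLx). Compound was given as 10 doses, 3-fold dilutions from a 1 μM final top concentration.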

[2] = molecular target: DNA-PK (Homo sapiens (Human), UniProt P78527); assay: DNA-PK Enzyme-Linked Immunosorbent Assay (phosphorylation of GST-p53 (1-101) peptide); type: biochemical; settings: ELISA
Outline: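 Inhibition measured by 450 nm absorbance after HRP/TMB detection of phospho-Ser15 on immobilized GST-p53 (1-101). The kinase reaction used 0.1 μg/mL DNA-PK and 20 μM ATP, 1 h at 25 °C. Ten 3-fold compound dilutions, top final concentration 100 nM.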

[3] = MCF-7 cells, etoposide 100 μM, 1 hr, pKAP1 readout
[4] = pKAP1 in etoposide-treated MCF-7 cells

Chain of ATM (Q13315 whole entry): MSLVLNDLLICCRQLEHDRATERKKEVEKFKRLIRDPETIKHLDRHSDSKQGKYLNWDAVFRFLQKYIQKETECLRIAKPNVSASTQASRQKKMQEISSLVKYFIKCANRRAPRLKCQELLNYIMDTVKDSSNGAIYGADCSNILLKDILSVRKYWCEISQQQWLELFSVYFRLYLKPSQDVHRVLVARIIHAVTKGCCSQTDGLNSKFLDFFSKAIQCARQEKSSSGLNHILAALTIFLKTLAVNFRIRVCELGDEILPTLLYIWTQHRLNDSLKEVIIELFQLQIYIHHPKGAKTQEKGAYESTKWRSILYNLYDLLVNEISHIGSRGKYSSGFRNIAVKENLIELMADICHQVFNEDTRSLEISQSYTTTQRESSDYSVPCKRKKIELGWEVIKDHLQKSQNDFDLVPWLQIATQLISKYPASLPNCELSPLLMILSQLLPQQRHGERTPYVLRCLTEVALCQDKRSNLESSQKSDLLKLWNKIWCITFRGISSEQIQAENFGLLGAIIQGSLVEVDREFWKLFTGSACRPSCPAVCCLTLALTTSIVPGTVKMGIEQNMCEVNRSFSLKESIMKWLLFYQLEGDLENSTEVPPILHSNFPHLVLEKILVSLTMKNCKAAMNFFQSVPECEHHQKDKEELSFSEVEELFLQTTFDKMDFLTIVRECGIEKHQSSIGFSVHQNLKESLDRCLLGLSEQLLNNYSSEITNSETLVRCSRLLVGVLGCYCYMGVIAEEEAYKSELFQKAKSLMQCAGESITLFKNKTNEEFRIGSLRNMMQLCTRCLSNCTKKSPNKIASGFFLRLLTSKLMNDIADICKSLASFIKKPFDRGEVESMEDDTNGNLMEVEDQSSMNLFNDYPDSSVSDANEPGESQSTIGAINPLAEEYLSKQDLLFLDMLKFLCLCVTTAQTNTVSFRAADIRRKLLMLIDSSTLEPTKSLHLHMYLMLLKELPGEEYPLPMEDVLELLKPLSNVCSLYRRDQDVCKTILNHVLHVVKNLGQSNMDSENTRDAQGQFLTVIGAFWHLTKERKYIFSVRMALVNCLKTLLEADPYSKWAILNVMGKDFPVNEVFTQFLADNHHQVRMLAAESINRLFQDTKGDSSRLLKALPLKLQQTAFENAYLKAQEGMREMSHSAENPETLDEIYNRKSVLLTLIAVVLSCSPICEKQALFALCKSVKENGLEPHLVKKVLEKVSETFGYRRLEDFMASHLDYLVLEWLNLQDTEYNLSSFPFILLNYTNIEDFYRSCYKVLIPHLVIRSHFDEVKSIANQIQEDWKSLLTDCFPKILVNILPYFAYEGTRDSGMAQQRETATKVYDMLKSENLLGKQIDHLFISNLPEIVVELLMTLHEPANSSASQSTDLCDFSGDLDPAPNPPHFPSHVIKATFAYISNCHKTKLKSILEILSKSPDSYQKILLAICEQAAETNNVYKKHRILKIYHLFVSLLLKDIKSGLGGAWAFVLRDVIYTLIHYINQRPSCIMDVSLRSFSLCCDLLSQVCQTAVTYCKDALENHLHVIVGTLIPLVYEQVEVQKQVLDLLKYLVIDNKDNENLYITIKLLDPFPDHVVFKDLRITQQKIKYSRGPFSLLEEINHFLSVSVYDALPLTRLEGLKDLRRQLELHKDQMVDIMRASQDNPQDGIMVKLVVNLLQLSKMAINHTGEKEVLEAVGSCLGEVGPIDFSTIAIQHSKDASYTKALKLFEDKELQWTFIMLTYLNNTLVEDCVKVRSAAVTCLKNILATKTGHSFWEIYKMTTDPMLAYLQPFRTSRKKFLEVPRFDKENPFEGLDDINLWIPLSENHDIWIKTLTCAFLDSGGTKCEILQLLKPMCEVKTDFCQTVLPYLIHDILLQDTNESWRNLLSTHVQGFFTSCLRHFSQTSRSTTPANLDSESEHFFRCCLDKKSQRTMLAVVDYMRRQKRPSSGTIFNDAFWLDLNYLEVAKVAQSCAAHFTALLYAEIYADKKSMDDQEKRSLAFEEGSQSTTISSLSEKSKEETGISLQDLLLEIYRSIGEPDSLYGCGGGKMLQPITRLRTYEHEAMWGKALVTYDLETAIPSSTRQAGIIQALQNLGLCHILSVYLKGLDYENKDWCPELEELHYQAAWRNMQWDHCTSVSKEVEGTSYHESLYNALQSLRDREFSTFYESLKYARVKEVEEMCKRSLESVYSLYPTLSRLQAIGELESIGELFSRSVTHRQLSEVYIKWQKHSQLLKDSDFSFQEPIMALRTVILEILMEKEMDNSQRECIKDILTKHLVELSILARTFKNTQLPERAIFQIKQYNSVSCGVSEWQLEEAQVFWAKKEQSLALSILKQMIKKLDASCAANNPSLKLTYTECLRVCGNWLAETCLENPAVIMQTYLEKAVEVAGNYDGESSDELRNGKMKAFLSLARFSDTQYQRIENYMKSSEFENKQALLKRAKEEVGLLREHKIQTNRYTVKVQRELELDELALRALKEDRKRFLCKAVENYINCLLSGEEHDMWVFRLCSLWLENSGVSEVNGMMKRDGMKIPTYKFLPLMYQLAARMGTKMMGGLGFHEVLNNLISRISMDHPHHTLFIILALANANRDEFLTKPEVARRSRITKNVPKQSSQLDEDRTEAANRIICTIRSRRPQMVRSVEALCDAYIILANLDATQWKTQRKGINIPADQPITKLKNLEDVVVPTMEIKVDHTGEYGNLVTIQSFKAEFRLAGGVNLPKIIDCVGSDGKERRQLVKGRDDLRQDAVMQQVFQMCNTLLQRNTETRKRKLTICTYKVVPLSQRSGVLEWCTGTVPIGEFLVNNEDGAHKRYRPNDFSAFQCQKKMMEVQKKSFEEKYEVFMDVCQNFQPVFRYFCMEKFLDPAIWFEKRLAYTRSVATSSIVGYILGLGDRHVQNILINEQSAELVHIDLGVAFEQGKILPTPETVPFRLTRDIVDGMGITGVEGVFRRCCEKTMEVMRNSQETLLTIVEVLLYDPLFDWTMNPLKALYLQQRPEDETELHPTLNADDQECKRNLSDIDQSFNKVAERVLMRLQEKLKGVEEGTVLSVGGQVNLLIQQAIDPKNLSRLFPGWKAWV

IC50 [1, 3] [nM] | IC50 ([2]; ATP 20 μM) [nM] | IC50 [1, 4] [nM] | IC50 ([2]; 20 μM ATP) [nM] | Structure (SMILES)
1 to 100 | 0.5 to 1 |  |  | CNCCOc1ncc(-c2ccc3ncc4c(c3c2)C2(CC2)C(=O)N4C)cc1NS(=O)(=O)c1ccccc1 [Example 43, N-(5-(3′-Methyl-2′-oxo-2′,3′-dihydrospiro [cyclopropane-1,1′-pyrrolo[2,3-c]quinolin]-8′-yl)-2-(2-(methylamino)ethoxy)pyridin-3-yl) benzenesulfonamide]
 |  | 1 to 100 | 1 to 100 | CN(C)CCCOc1ncc(-c2ccc3ncc4c(c3c2)[C@]2(C[C@@H](O)C2)C(=O)N4C)cc1NS(C)(=O)=O [Example 383, trans-N-(2-(3-(Dimethylamino)propoxy)-5-(3-hydroxy-3′-methyl-2′-oxo-2′,3′-dihydrospiro[cyclobutane-1,1′-pyrrolo[2,3-c]quinolin]-8′-yl)pyridin-3-yl)methanesulfonamide]
1 to 100 | 1 to 100 |  |  | CN(C)CCCOc1ncc(-c2ccc3ncc4c(c3c2)C2(COC2)C(=O)N4C)cc1NS(=O)(=O)C1CC1 [Example 47, N-(2-(3-(Dimethylamino)propoxy)-5-(3′-methyl-2′-oxo-2′,3′-dihydrospiro [oxetane-3,1′-pyrrolo[2,3-c]quinolin]-8′-yl)pyridin-3-yl)cyclopropanesulfonamide]
 |  | 1 to 100 | 1 to 100 | CC(C)NCCOc1ncc(-c2cc3c4c(cnc3cc2F)N(C)C(=O)C42CCC2)cc1NS(=O)(=O)N1CC(F)C1 [Example 371, 3-Fluoro-N-(5-(7′-fluoro-3′-methyl-2′-oxo-2′,3′-dihydrospiro[cyclobutane-1,1′-pyrrolo[2,3-c]quinolin]-8′-yl)-2-(2-(isopropylamino)ethoxy)pyridin-3-yl)azetidine-1-sulfonamide]
1 to 100 | 1 to 100 |  |  | CN(C)CCCOc1ncc(-c2ccc3ncc4c(c3c2)C2(CCC2)C(=O)N4C)cc1NS(=O)(=O)c1cccc(C(F)(F)F)c1 [Example 150, N-(2-(3-(Dimethylamino)propoxy)-5-(3′-methyl-2′-oxo-2′,3′-dihydrospiro[cyclobutane-1,1′-pyrrolo[2,3-c]quinolin]-8′-yl)pyridin-3-yl)-3-(trifluoromethyl)benzenesulfonamide]
 |  | 1 to 100 | 1 to 100 | CC(C)NCCOc1ncc(-c2cc3c(cc2F)ncc2c3[C@]3(C[C@H](c4ccc(Cl)cc4)C3)C(=O)N2C)cc1NS(C)(=O)=O [Example 416, cis-N-(5-(3-(4-Chlorophenyl)-7′-fluoro-3′-methyl-2′-oxo-2′,3′-dihydrospiro[cyclobutane-1,1′-pyrrolo[2,3-c]quinolin]-8′-yl)-2-(2-(isopropylamino)ethoxy)pyridin-3-yl)methanesulfonamide]
1 to 100 | 1 to 100 |  |  | CN1CCN(CCCOc2ncc(-c3ccc4ncc5c(c4c3)C3(CCC3)C(=O)N5C)cc2NS(C)(=O)=O)CC1 [Example 299, N-(5-(3′-Methyl-2′-oxo-2′,3′-dihydrospiro[cyclobutane-1,1′-pyrrolo[2,3-c]quinolin]-8′-yl)-2-(3-(4-methylpiperazin-1-yl)propoxy)pyridin-3-yl)methanesulfonamide]
1 to 100 | 0.5 to 1 |  |  | CN(C)CCCOc1ncc(-c2cc3c4c(cnc3cc2F)N(C)C(=O)C42CCC2)cc1NS(=O)(=O)N(C)C [Example 290, 8′-{6-[3-(Dimethylamino)propoxy]-5-[(dimethylsulfamoyl)amino]pyridin-3-yl}-7′-fluoro-3′-methyl-2′,3′-dihydrospiro[cyclobutane-1,1′-pyrrolo[2,3-c]quinoline]-2′-one hydrochloride]
1 to 100 | 1 to 100 |  |  | CN1C(=O)C2(CC2)c2c1cnc1cc(F)c(-c3cnc(OCCCN4CCCC4)c(NS(=O)(=O)c4ccccc4)c3)cc21 [Example 124, N-(5-(7′-Fluoro-3′-methyl-2′-oxo-2′,3′-dihydrospiro[cyclopropane-1,1′-pyrrolo[2,3-c]quinolin]-8′-yl)-2-(3-(pyrrolidin-1-yl)propoxy)pyridin-3-yl)benzenesulfonamide]
1 to 100 | 1 to 100 |  |  | COCCS(=O)(=O)Nc1cc(-c2ccc3ncc4c(c3c2)C2(CCC2)C(=O)N4C)cnc1OCCCN(C)C [Example 266, N-(2-(3-(Dimethylamino)propoxy)-5-(3′-methyl-2′-oxo-2′,3′-dihydrospiro [cyclobutane-1,1′-pyrrolo[2,3-c]quinolin]-8′-yl)pyridin-3-yl)-2-methoxyethane-1-sulfonamide]
 |  | 1 to 100 | 1 to 100 | CC(C)NCCOc1ncc(-c2cc3c4c(cnc3cc2F)N(C)C(=O)C42CCC2)cc1NS(=O)(=O)N1CCOCC1 [Example 373, N-(5-(7′-Fluoro-3′-methyl-2′-oxo-2′,3′-dihydrospiro [cyclobutane-1,1′-pyrrolo [2,3-c]quinolin]-8′-yl)-2-(2-(isopropylamino)ethoxy)pyridin-3-yl)morpholine-4-sulfonamide hydrochloride]
1 to 100 | 0.5 to 1 |  |  | CN(C)CC(O)COc1ncc(-c2ccc3ncc4c(c3c2)C2(CCC2)C(=O)N4C)cc1NS(C)(=O)=O (stereo not shown) [Example 295, N-(2-(3-(Dimethylamino)-2-hydroxypropoxy)-5-(3′-methyl-2′-oxo-2′,3′-dihydrospiro[cyclobutane-1,1′-pyrrolo[2,3-c]quinolin]-8′-yl)pyridin-3-yl)methanesulfonamide]
1 to 100 | < 0.5 |  |  | CCc1ncc(S(=O)(=O)Nc2cc(-c3ccc4ncc5c(c4c3)C3(CCC3)C(=O)N5C)cnc2OCCCN(C)C)s1 [Example 245, N-(2-(3-(Dimethylamino)propoxy)-5-(3′-methyl-2′-oxo-2′,3′-dihydrospiro [cyclobutane-1,1′-pyrrolo [2,3-c]quinolin]-8′-yl)pyridin-3-yl)-2-ethylthiazole-5-sulfonamide]
1 to 100 | < 0.5 |  |  | CCNCCOc1ncc(-c2ccc3ncc4c(c3c2)C2(CCC2)C(=O)N4C)cc1NS(C)(=O)=O [Example 248, N-(2-(2-(Ethylamino)ethoxy)-5-(3′-methyl-2′-oxo-2′,3′-dihydrospiro[cyclobutane-1,1′-pyrrolo[2,3-c]quinolin]-8′-yl)pyridin-3-yl) methanesulfonamide]
1 to 100 | 1 to 100 |  |  | CN(C)CCCOc1ncc(-c2ccc3ncc4c(c3c2)C2(CCCC2)C(=O)N4C)cc1NS(=O)(=O)c1ccccc1 [Example 2, N-(2-(3-(Dimethylamino)propoxy)-5-(3′-methyl-2′-oxo-2′,3′-dihydrospiro[cyelopentane-1,1′-pyrrolo[2,3-c]quinolin]-8′-yl)pyridin-3-yl) benzenesulfonamide]
 |  | 1 to 100 | 1 to 100 | CC(C)NCCOc1ncc(-c2cc3c(cc2F)ncc2c3[C@]3(C[C@@H](c4ccccc4)C3)C(=O)N2C)cc1NS(C)(=O)=O [Example 415, trans-N-(5-(7′-Fluoro-3′-methyl-2′-oxo-3-phenyl-2′,3′-dihydrospiro[cyclobulane-1,1′-pyrrolo[2,3-c]quinolin]-8′-yl)-2-(2-(isopropylamino)ethoxy)pyridin-3-yl)methanesulfonamide hydrochloride]
1 to 100 | 0.5 to 1 |  |  | CN1C(=O)C2(CCC2)c2c1cnc1ccc(-c3cnc(OCCCN4CCOCC4)c(NS(=O)(=O)N(C)C)c3)cc21 [Example 304, 8′-{5-[(Dimethylsulfamoyl)amino]-6-[3-(morpholin-4-yl)propoxy]pyridin-3-yl)-3′-methyl-2′,3′-dihydrospiro[cyclobutane-1,1′-pyrrolo[2,3-c]quinoline]-2′-one]
 |  | 1 to 100 | < 0.5 | CC(C)NCCOc1ncc(-c2cc3c4c(cnc3cc2F)N(C)C(=O)C42CN(c3ccc4c(c3)OCO4)C2)cc1NS(C)(=O)=O [Example 544, N-(5-(1-(Benzo[d][1,3]dioxol-5-yl)-7′-fluoro-3′-methyl-2′-oxo-2′,3′-dihydrospiro[azetidine-3,1′-pyrrolo[2,3-c]quinolin]-8′-yl)-2-(2-(isopropylamino)ethoxy)pyridin-3-yl)methanesulfonamide]
1 to 100 | > 100 |  |  | CN(C)CCCOc1ncc(-c2ccc3ncc4c(c3c2)C2(CC2)C(=O)N4C)cn1 [Example 71, 8′-(2-(3-(Dimethylamino)propoxy)pyrimidin-5-yl)-3′-methylspiro [cyclopropane-1,1′-pyrrolo[2,3-c]quinolin]-2′(3′-H)-one]
1 to 100 | < 0.5 |  |  | COc1ncc(-c2ccc3ncc4c(c3c2)C2(CC2)C(=O)N4)cc1NS(=O)(=O)c1ccccc1 [Example 19, N-(2-Methoxy-5-(2′-oxo-2′,3′-dihydrospiro [cyclopropane-1,1′-pyrrolo[2,3-c]quinolin]-8′-yl)pyridin-3-yl) benzenesulfonamide]
0.5 to 1 | 1 to 100 |  |  | CN(C)CC1CCN(c2ncc(-c3ccc4ncc5c(c4c3)C3(CC3)C(=O)N5C)cc2NS(=O)(=O)C2CC2)CC1 [Example 115]
> 100 | > 100 |  |  | CN(CCC#N)CCCOc1ncc(-c2ccc3ncc4c(c3c2)C2(CCC2)C(=O)N4C)cc1NS(C)(=O)=O [Example 293, N-(2-(3-((2-Cyanoethyl)(methyl)amino)propoxy)-5-(3′-methyl-2′-oxo-2′3′-dihydrospiro[cyclobutane-1,1′-pyrrolo[2,3-c]quinolin]-8′-yl)pyridin-3-yl)methanesulfonamide]
1 to 100 | < 0.5 |  |  | CN1C(=O)C2(CCC2)c2c1cnc1ccc(-c3cnc(N4CCC(N5CCCCC5)CC4)c(NS(=O)(=O)N(C)C)c3)cc21 [Example 208, 8′-(6-{[1,4′-Bipiperidine]-1′-yl}-5-[(dimethylsulfamoyl)amino]pyridin-3-yl)-3′-methyl-2′,3′-dihydrospiro[cyclobutane-1,1′-pyrrolo[2,3-c]quinoline]-2′-one]

Reference: patent US12187742B2 (XRAD Therapeutics, Inc., priority 2018, dated 2025)
